Read-outs that look alike come from different tables or passages of the source.
What was measured:
786-O cells = test: VEGF ELISA Assay; type: cell-based; conditions: Homo sapiens, 786-0
Experimental: Each concentration was plated in duplicate. About 20 hours later, medium was removed by suction and each well was supplied with 180 μL of growth medium. About 20 μl freshly-made 10× compound stocks were added to each well. […] The EC50 was calculated by GraphPad Prism using the dose-response-inhibition (four parameter) equation. The cell-seeded plate was then subjected to CellTiter-Glo luminescence cell viability assay (Promega) by adding 50 μL of Celltiter Glo reagent into each well and shaking the plate for 8 minutes at 550 rpm (Thermomixer R, Eppendorf) then the luminescence signal immediately read in a plate reader (3 second delay, 0.5 second/well integration time, Synergy 2 multi Detection Microplate reader).

786-O-Hif-Luc cells = test: Luciferase Assay (HIF responsive elements reporter)
Experimental: A pool of infected cells were then selected against 2 μg/mL of puromycin (P8833, Sigma) for 10 days followed by limited dilution to select single clones. […] Each concentration was tested in triplicate. After about 24 hours, luciferase activity was determined using ONE-Glo Luciferase Assay Reagent (E6110, Promega) following the manufacturer's recommended procedure. EC50 were calculated using Dotmatics software.

[1] = target: T1, HIF-2α HIS TAG-PASB Domain (Homo sapiens, UniProt Q99814); test: HIF-2α Scintillation Proximity Assay (SPA); type: binding
T1 construct: 100 nM HIF-2α HIS TAG-PASB Domain
Method in brief: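 IC50 values rest on percent inhibition, where the sample signal is scaled between high and low controls. Wells contain about 100 μL: compound dispensed as 2 μL of DMSO solution, 88 μL protein-probe mix and 10 μL of beads.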

[2] = read-out: Mean Luciferase EC50 (nM)
[3] = read-out: Mean Luciferase EC50 (nM), 786-O-Hif-Luc cells
[4] = read-out: Scintillation Proximity Assay IC50

T1 sequence (Q99814 240-350 limits assumed): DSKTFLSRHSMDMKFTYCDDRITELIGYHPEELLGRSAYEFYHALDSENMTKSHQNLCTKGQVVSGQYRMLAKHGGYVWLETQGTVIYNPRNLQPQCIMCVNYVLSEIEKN

O=S(=O)(c1ccc(Oc2cc(F)cc(Cl)c2)c2c1[C@H](O)CC2)C(F)F [Compound 1] gave an EC50 (786-O cells) of 0.25 to 1 µM.
O=S(=O)(c1ccc(Oc2cc(F)cc(Cl)c2)c2c1C(O)CC2)C(F)F (stereo not drawn) [Compound 17] was tested, and the EC50 (786-O cells) was 0.05 to 0.249 µM.
Work on O=S(=O)(c1ccc(Oc2cc(F)cc(Cl)c2)c(Cl)c1CO)C(F)F [Compound 41] yielded an EC50 (786-O cells) of 0.25 to 1 µM and an EC50 (786-O-Hif-Luc cells; [2]) of 250 to 1000 nM.
In the case of N#Cc1ccc(Oc2cc(F)cc(F)c2)c2c1[C@H](O)C(F)(F)C2 [Compound 67], the EC50 (786-O cells) is reported as 0.05 to 0.249 µM.
For N#Cc1cccc(Oc2ccc(S(=O)(=O)C(F)(F)F)c(C#N)c2Br)c1 [Compound 99], the EC50 (786-O cells) was 0.25 to 1 µM and the EC50 (786-O-Hif-Luc cells; [3]) was 250 to 1000 nM.
Compound O=S(=O)(c1ccc(Oc2cc(F)cc(Cl)c2)c(Br)c1CO)C(F)(F)F [Compound 102] has an IC50 [1, 4] of 50 to 249 nM and an EC50 (786-O cells) of 0.25 to 1 µM.
For O=S(=O)(c1ccc(Oc2cc(F)cc(Cl)c2)c(C(F)F)c1)C(F)(F)F [Compound 124], the EC50 (786-O cells) was 0.25 to 1 µM and the EC50 (786-O-Hif-Luc cells; [2]) was 250 to 1000 nM.
Compound N#Cc1cc(S(=O)(=O)C(F)F)ccc1Oc1cc(F)cc(Cl)c1 [Compound 133] has an IC50 [1, 4] of 250 to 1000 nM and an EC50 (786-O cells) greater than 1 µM.
N#Cc1cc(F)cc(Oc2ccc(S(=O)(=O)C(F)F)c3c2CC[C@H]3O)c1 [Compound 155] was tested, and the EC50 (786-O cells) was 0.05 to 0.249 µM and the EC50 (786-O-Hif-Luc cells; [2]) was 50 to 249 nM.
In the case of O=S(=O)(c1ccc(Oc2cc(F)cc(Cl)c2)c(Br)c1Cl)C(F)(F)F [Compound 179], the IC50 [1, 4] is reported as less than 50 nM and the EC50 (786-O cells) is reported as greater than 1 µM.
CS(=O)(=O)c1ccc(Oc2cc(Cl)cc(C#N)c2)c2c1[C@H](O)C(F)(F)C2 [Compound 234] showed an EC50 (786-O cells) of 0.05 to 0.249 µM and an EC50 (786-O-Hif-Luc cells; [2]) of less than 50 nM.
In the case of N#Cc1cc(F)cc(Oc2ccc(S(=N)(=O)CF)c3c2CC(F)(F)[C@H]3O)c1 (stereo partly drawn) [Compound 274], the IC50 [1, 4] is reported as 50 to 249 nM and the EC50 (786-O cells) is reported as greater than 1 µM.
In the case of O=S1(=O)c2ccc(Oc3cc(F)cc(Cl)c3)c(Br)c2C(O)C1(F)F (stereo not drawn) [Compound 355], the IC50 ([1]; Scintillation Proximity Assay IC50 (nM)) is reported as less than 50 nM and the EC50 (786-O cells) is reported as 0.05 to 0.249 µM.
For CC1(O)c2c(ccc(Oc3cc(F)cc(C#N)c3)c2C#N)S(=O)(=O)C1(F)F (stereo not drawn) [Compound 451], the EC50 (786-O cells) was less than 0.05 µM and the EC50 (786-O-Hif-Luc cells; [3]) was less than 50 nM.
C[C@@]1(O)c2c(ccc(Oc3cc(F)cc(C#N)c3)c2C#N)S(=O)(=O)C1(F)F [Compound 458] gave an EC50 (786-O cells) of less than 0.05 µM and an EC50 (786-O-Hif-Luc cells; [3]) of less than 50 nM.
CS(=O)(=O)c1ccc(O[C@H]2C[C@](F)(C#N)C2)c2c1[C@H](O)C(F)(F)[C@@H]2F [Compound 741] gave an IC50 [1, 4] of less than 50 nM and an EC50 (786-O-Hif-Luc cells; [3]) greater than 1000 nM.
CC(Oc1ccc(S(=O)(=O)C(F)(F)F)c2c1CC(F)(F)C2O)C1CC1 (stereo not drawn) [Compound 746] gave an IC50 [1, 4] of less than 50 nM and an EC50 (786-O-Hif-Luc cells; [3]) of less than 50 nM.
CCC(COC)Oc1ccc(S(=O)(=O)C(F)(F)F)c2c1CC(F)(F)C2O (stereo not drawn) [Compound 747] showed an IC50 [1, 4] of 50 to 249 nM and an EC50 (786-O-Hif-Luc cells; [3]) of 250 to 1000 nM.
In the case of CC(Oc1ccc(S(=O)(=O)C(F)(F)F)c2c1CC(F)(F)[C@H]2O)C1(C#N)CC1 (stereo partly drawn) [Compound 748], the IC50 [1, 4] is reported as 250 to 1000 nM and the EC50 (786-O-Hif-Luc cells; [3]) is reported as 250 to 1000 nM.
For N#CC1(CCOc2ccc(S(=O)(=O)C(F)(F)F)c3c2CC(F)(F)[C@H]3O)COC1 [Compound 749], the IC50 [1, 4] was 250 to 1000 nM and the EC50 (786-O-Hif-Luc cells; [3]) was greater than 1000 nM.
Work on CC(C)(O)COc1ccc(S(=O)(=O)C(F)(F)F)c2c1CC(F)(F)[C@H]2O [Compound 750] yielded an IC50 [1, 4] of 250 to 1000 nM and an EC50 (786-O-Hif-Luc cells; [3]) of 250 to 1000 nM.
Compound CS(=O)(=O)c1ccc(OCC(F)(F)F)c2c1[C@H](O)C(F)(F)[C@@H]2F [Compound 751] has an IC50 [1, 4] of 50 to 249 nM and an EC50 (786-O-Hif-Luc cells; [3]) greater than 1000 nM.
CC(C)(C#N)COc1ccc(S(C)(=O)=O)c2c1[C@@H](F)C(F)(F)[C@H]2O [Compound 752] showed an IC50 [1, 4] greater than 1000 nM and an EC50 (786-O-Hif-Luc cells; [3]) greater than 1000 nM.
CS(=O)(=O)c1ccc(OC2CCC2)c2c1[C@H](O)C(F)(F)[C@@H]2F [Compound 753] gave an IC50 [1, 4] of less than 50 nM and an EC50 (786-O-Hif-Luc cells; [3]) of 250 to 1000 nM.
CS(=O)(=O)c1ccc(OCC2(C#N)CC2)c2c1[C@H](O)C(F)(F)[C@@H]2F [Compound 754] gave an IC50 [1, 4] of 250 to 1000 nM and an EC50 (786-O-Hif-Luc cells; [3]) greater than 1000 nM.
In the case of CS(=O)(=O)c1ccc(OCC(F)F)c2c1[C@H](O)C(F)(F)[C@@H]2F [Compound 755], the IC50 [1, 4] is reported as 50 to 249 nM and the EC50 (786-O-Hif-Luc cells; [3]) is reported as greater than 1000 nM.
CS(=O)(=O)c1ccc(OCC2CC2(F)F)c2c1[C@H](O)C(F)(F)[C@@H]2F (stereo partly drawn) [Compound 756] gave an IC50 [1, 4] of less than 50 nM and an EC50 (786-O-Hif-Luc cells; [3]) of 250 to 1000 nM.
For CS(=O)(=O)c1ccc(OCC2CC(F)(F)C2)c2c1[C@H](O)C(F)(F)[C@@H]2F [Compound 759], the IC50 [1, 4] was 50 to 249 nM and the EC50 (786-O-Hif-Luc cells; [3]) was 250 to 1000 nM.
With CS(=O)(=O)c1ccc(OC(CF)CF)c2c1[C@H](O)C(F)(F)[C@@H]2F [Compound 762] the IC50 [1, 4] was 250 to 1000 nM and the EC50 (786-O-Hif-Luc cells; [3]) was 250 to 1000 nM.
CS(=O)(=O)c1ccc(OC[C@@H]2C[C@@H]2C#N)c2c1[C@H](O)C(F)(F)[C@@H]2F [Compound 764] was tested, and the IC50 [1, 4] was greater than 1000 nM and the EC50 (786-O-Hif-Luc cells; [3]) was greater than 1000 nM.
Work on CS(=O)(=O)c1ccc(OC[C@H]2C[C@H]2C#N)c2c1[C@H](O)C(F)(F)[C@@H]2F [Compound 765] yielded an IC50 [1, 4] of 250 to 1000 nM and an EC50 (786-O-Hif-Luc cells; [3]) greater than 1000 nM.
Work on CS(=O)(=O)c1ccc(O[C@H]2C[C@](C)(C#N)C2)c2c1[C@H](O)C(F)(F)[C@@H]2F [Compound 767] yielded an IC50 [1, 4] greater than 1000 nM and an EC50 (786-O-Hif-Luc cells; [3]) greater than 1000 nM.
CS(=O)(=O)c1ccc(OC[C@@H]2CC2(F)F)c2c1[C@H](O)C(F)(F)[C@@H]2F [Compound 768] gave an IC50 [1, 4] of 50 to 249 nM and an EC50 (786-O-Hif-Luc cells; [3]) of 250 to 1000 nM.
With CS(=O)(=O)c1ccc(OC[C@H]2C[C@@H]2C#N)c2c1[C@H](O)C(F)(F)[C@@H]2F [Compound 770] the IC50 [1, 4] was 250 to 1000 nM and the EC50 (786-O-Hif-Luc cells; [3]) was greater than 1000 nM.
CS(=O)(=O)c1ccc(OC2CCC(F)(F)CC2)c2c1[C@H](O)C(F)(F)[C@@H]2F [Compound 771] showed an IC50 [1, 4] of 50 to 249 nM and an EC50 (786-O-Hif-Luc cells; [3]) of 250 to 1000 nM.
With CC(Oc1ccc(S(C)(=O)=O)c2c1[C@@H](F)C(F)(F)[C@H]2O)C(F)F (stereo partly drawn) [Compound 774] the IC50 [1, 4] was less than 50 nM and the EC50 (786-O-Hif-Luc cells; [3]) was 250 to 1000 nM.
Compound CCOc1ccc(S(C)(=O)=O)c2c1CC(F)(F)[C@H]2O [Compound 778] has an IC50 [1, 4] of less than 50 nM and an EC50 (786-O-Hif-Luc cells; [3]) greater than 1000 nM.
CS(=O)(=O)c1ccc(OCC2CC2)c2c1[C@H](O)C(F)(F)C2 [Compound 779] gave an IC50 [1, 4] greater than 1000 nM and an EC50 (786-O-Hif-Luc cells; [3]) greater than 1000 nM.
O=S(=O)(c1ccc(OCc2ccccc2)c2c1[C@H](O)C(F)(F)C2)C(F)F [Compound 780] was tested, and the IC50 [1, 4] was greater than 1000 nM and the EC50 (786-O-Hif-Luc cells; [3]) was greater than 1000 nM.
Compound O=S(=O)(c1ccc(OCC2CC2)c2c1[C@H](O)C(F)(F)C2)C(F)F [Compound 781] has an IC50 [1, 4] of 250 to 1000 nM and an EC50 (786-O-Hif-Luc cells; [3]) of 50 to 249 nM.
O=S(=O)(c1ccc(OC2CCOCC2)c2c1C(O)C(F)(F)C2)C(F)F (stereo not drawn) [Compound 782] was tested, and the IC50 [1, 4] was 50 to 249 nM and the EC50 (786-O-Hif-Luc cells; [3]) was 50 to 249 nM.
In the case of N#C[C@H]1C[C@H](Oc2ccc(S(=O)(=O)C(F)(F)F)c3c2CC(F)(F)[C@H]3O)C1 [Compound 786], the IC50 [1, 4] is reported as less than 50 nM and the EC50 (786-O-Hif-Luc cells; [3]) is reported as less than 50 nM.
With N#C[C@H]1C[C@@H](Oc2ccc(S(=O)(=O)C(F)(F)F)c3c2CC(F)(F)[C@H]3O)C1 [Compound 787] the IC50 [1, 4] was less than 50 nM and the EC50 (786-O-Hif-Luc cells; [3]) was less than 50 nM.
C[C@]1(C#N)C[C@H](Oc2ccc(S(=O)(=O)C(F)(F)F)c3c2CC(F)(F)[C@H]3O)C1 [Compound 788] was tested, and the IC50 [1, 4] was 50 to 249 nM and the EC50 (786-O-Hif-Luc cells; [3]) was 250 to 1000 nM.
Work on C[C@]1(C#N)C[C@@H](Oc2ccc(S(=O)(=O)C(F)(F)F)c3c2CC(F)(F)[C@H]3O)C1 [Compound 789] yielded an IC50 [1, 4] of less than 50 nM and an EC50 (786-O-Hif-Luc cells; [3]) of less than 50 nM.
N#CC1(COc2ccc(S(=O)(=O)C(F)(F)F)c3c2CC(F)(F)[C@H]3O)CCC1 [Compound 790] showed an IC50 [1, 4] of less than 50 nM and an EC50 (786-O-Hif-Luc cells; [3]) of less than 50 nM.
C[C@]1(C#N)C[C@@H](Oc2ccc(S(=O)(=O)C(F)(F)F)c3c2C[C@@H](F)[C@H]3O)C1 [Compound 794] showed an IC50 [1, 4] of less than 50 nM and an EC50 (786-O-Hif-Luc cells; [3]) of less than 50 nM.
With C[C@]1(C#N)C[C@H](Oc2ccc(S(=O)(=O)C(F)(F)F)c3c2C[C@H](F)[C@H]3O)C1 [Compound 795] the IC50 [1, 4] was 50 to 249 nM and the EC50 (786-O-Hif-Luc cells; [3]) was 50 to 249 nM.
